Test results reported in PMC13626384 (Journal of medicinal chemistry, 2025).
Read-outs that look alike come from different tables or passages of the source. Marks after values point to notes of the source that are not given here.

Assays:
D283-med cell line = assay: Cytotoxicity against D283-med cells; type: cell-based, human
SF188 cell line = assay: Cytotoxicity against SF188 cells; type: cell-based, human; details: Homo sapiens, SF-188, read-out: SF188 IC50, glioblastoma cell line
[1] = PAMPA-BBB permeability assay; details: PAMPA, PAMPA-BBB; for recovery: % Recovery; for Papp: Mean Permeability
Caco-2 cells = details: ref Literature data; cited from earlier work
Plasma stability = type: in vitro ADME
[2] = Liver microsomal stability; details: mouse liver microsomes
in vitro = details: mouse liver microsomes
[3] = molecular target: human immunoproteasome (i20S) β1 (Homo sapiens, UniProt P28065+P40306); assay: Proteasome subunit inhibition, i20S β1; type: biochemical
[4] = molecular target: human constitutive proteasome (c20S) β5 (Homo sapiens, UniProt P20618+P28074); assay: Proteasome subunit inhibition, c20S β5; type: biochemical
[5] = molecular target: human immunoproteasome (i20S) β2 (Homo sapiens, UniProt P40306+P49720); assay: Proteasome subunit inhibition, i20S β2; type: biochemical
P-gp = assay: Caco-2 cell permeability and efflux; type: in vitro ADME, human; details: human, Caco-2
[6] = Caco-2 cell permeability and efflux; type: in vitro ADME, human; details: human; for Papp A→B / Papp B→A: Caco-2
mice = assay: Toxicity observation in the PK study; type: in vivo; details: 1 mg/kg i.v.
[7] = molecular target: human immunoproteasome (i20S) β5 (Homo sapiens, UniProt P20618+P28062); assay: Proteasome subunit inhibition, i20S β5; type: biochemical
Whole blood stability = type: in vitro ADME; details: whole blood incubation, 2 hours
[8] = In vivo pharmacokinetics, plasma and brain; set-up: species or system Male C57BL/6 mice; details: mice
[9] = molecular target: human constitutive proteasome (c20S) β1 (Homo sapiens, UniProt P28072+Q99436); assay: Proteasome subunit inhibition, c20S β1; type: biochemical
[10] = molecular target: human constitutive proteasome (c20S) β2 (Homo sapiens, UniProt P49720+Q99436); assay: Proteasome subunit inhibition, c20S β2; type: biochemical
[11] = Homo sapiens, D283 Med, read-out: D283-med IC50, medulloblastoma cell line
[12] = Caco-2, % Recovery (A-B), Caco-2, A-B direction
[13] = Caco-2, % Recovery (B-A), Caco-2, B-A direction

SMILES	IC50 (D283-med cell line; [11])	IC50 (SF188 cell line)	recovery [1]	Papp [1]	Microsomal Stability Clearance Category [2]	half-life (in vitro)	IC50 [3]	IC50 [4]	IC50 [5]	Efflux Ratio (P-gp)	Papp A→B [6]	Papp B→A [6]	recovery [6, 12]	recovery [6, 13]	IC50 [7]	IC50 [9]	IC50 [10]	further results
CC(C)C[C@H](NC(=O)[C@H](CCc1ccccc1)NC(=O)CN1CCOCC1)C(=O)N[C@@H](Cc1ccccc1)C(=O)N[C@@H](CC(C)C)C(=O)[C@@]1(C)CO1 [Carfilzomib, reference compound]	205 ± 24 nM	706 ± 82 nM	41%	1.43 ×10⁻⁶ cm/s	High	< 5 min	–	–	–	–	–	–	–	–	–	–	–	Efflux Ratio (Caco-2 cells): 28.6*; remaining at 2 h (Plasma stability; mouse, plasma, Plasma Stability % remaining, after 2 hr): 99%
CC(C)C[C@H](NC(=O)[C@@H]1CS(=O)(=O)CCCCCCCCCC(=O)N[C@@H](C(C)C)C(=O)N1)C(=O)[C@@]1(C)CO1 [Compound 40, (3R,6S)-6-Isopropyl-N-((S)-4-methyl-1-((R)-2-methyloxiran-2-yl)-1-oxopentan-2-yl)-5,8-dioxo-1-thia-4,7-diazacycloheptadecane-3-carboxamide 1,1-dioxide]	2.3 nM	6.7 ± 0.3 nM	77%	3.34 ×10⁻⁶ cm/s	High	< 5 min	144 ± 9.2 nM	7.5 ± 0.6 nM	23 ± 1.6 nM	4.8	10.1 ×10⁻⁶ cm/s	48.8 ×10⁻⁶ cm/s	91%	89%	16 ± 2 nM	767 ± 177 nM	39.4 ± 6.3 nM	IC50 (D283-med cell line; read-out: D283-med IC50, medulloblastoma cell line): 2.26 ± 0.26 nM; Signs of toxicity (mice): lack of toxicity; Whole blood retention (Whole blood stability): ~ 15%; Levels in brain tissues ([8]; 1 mg/kg i.v.): failed to achieve detectable levels; Plasma concentrations after dosing ([8]; 1 mg/kg i.v.): negligible plasma concentrations beyond 5 minutes post-dosing; Plasma concentrations after dosing ([8]; 10 mg/kg): did not exhibit significant plasma concentrations beyond 5 minutes post-administration; Plasma Stability % remaining (Plasma stability; mouse plasma, after 2 hr): 94 after 2 hr %; remaining at 5 h (Plasma stability; mouse, plasma, Plasma Stability % remaining, after 5 hr): > 75%; microsomal CLint (in vitro): 323 µL/min/mg
CC(C)C[C@H](NC(=O)[C@@H]1CSCCOCCOCCC(=O)N[C@@H](C(C)C)C(=O)N1)C(=O)[C@@]1(C)CO1 [Compound 41, (9R,12S)-12-Isopropyl-N-((S)-4-methyl-1-((R)-2-methyloxiran-2-yl)-1-oxopentan-2-yl)-11,14-dioxo-1,4-dioxa-7-thia-10,13-diazacyclohexadecane-9-carboxamide]	90 ± 8 nM	113 ± 9 nM	98%	0.22 ×10⁻⁶ cm/s	–	–	49 ± 2.2 nM	390 ± 50.7 nM	277 ± 49.1 nM	27.6	0.75 ×10⁻⁶ cm/s	20.8 ×10⁻⁶ cm/s	102%	101%	4900 ± 2160 nM	484 ± 33 nM	110 ± 20.3 nM	–
